From patent US20200061038A1, “THERAPEUTIC AGENT FOR FIBROSIS AND INHIBITOR OF NUCLEAR TRANSLOCATION OF PHOSPHORYLATED SMAD” (NATIONAL UNIVERSITY CORPORATION CHIBA UNIVERSITY, priority 2016, published 2020)

Tests used:
[1] = tested on: patient's pulmonary fibroblast cells; assay: αSMA expression (western blot) in patient's pulmonary fibroblast cells; assay type: cell-based, human; details: PPMP 0.5 μM, 1.0 μM; NB-DNJ 100 μM, 200 μM; cultured 48 hours
Procedure: Post-operative lung tissues were obtained from a lung transplant patient who was suffering from a serious case of pleuroparenchymal fibroelastosis.
The lung tissues were shredded, rinsed with phosphate-buffered saline (PBS), and then incubated at 37° C. for 15 minutes under gentle shaking, using 1 mg/ml collagenase type I (Worthington, Lakewood, N.J., USA), 0.5 mg/ml disperse (Life Technologies), 2 U/ml DNase (QIAGEN, Valencia, Calif., USA), 0.1 mg/ml streptomycin, and 100 U/ml penicillin.
The tissues were washed twice in DMEM, and then transferred into an 80-cm^2 culture flask and cultured at 37° C. in 5% CO2.
Cell growth was monitored every week, with the culture medium changed every four days. Once the flask reached confluent cultures, the cells were collected as cells at passage 0, and the cells obtained at passage 3 were used in the experiment as the patient's pulmonary fibroblast cells.
Patient's pulmonary fibroblast cells were cultured under the conditions of 95% air-5% CO2 and 37° C., using a Dulbecco's Modified Eagle Medium (DMEM) containing 10% fetal bovine serum (FBS), 100 μg/mL streptomycin, and 66.7 μg/mL penicillin.

Smad2/3 = details: HFL1 cells; PPMP 3 μM applied 30 minutes before TGFβ1 (10 ng/mL) treatment; over time
Procedure: HFL1 cells were inoculated onto a six-well plate by 1.0×10^5 cells/well, and then cultured in 2.0 mL of DMEM containing 10% FBS, to achieve 70% confluence. The cells were washed using Hanks' balanced salt solution (HBSS) containing 0.1% bovine serum albumin (BSA) (4.2 mM NaHCO3, 137 mM NaCl, 5.36 mM KCl, 0.4 mM MgSO4.7H2O, 0.34 mM Na2HPO4.12H2O, 5.55 mM glucose, 0.44 mM KH2PO4, 0.72 mM CaCl2.H2O, pH=7.4), and then cultured in a DMEM containing 0.1% BSA for 48 hours without serum. […]
The cells were crushed according to the vortex method, centrifuged under the conditions of 15000 rpm and 4° C. for 30 minutes, and the supernatant was taken as a sample. Quantitative determination of protein was performed according to the Bradford method, and a specified amount of protein was separated by SDS-polyacrylic amide gel electrophoresis. […]
Thereafter, the PVDF film was soaked in an ECL solution and fluorometric detection was performed using an image capture/analysis system (ChemiDocMP System manufactured by Bio-Rad). The detected bands were converted to numerical values using image processing software (ImageJ).

αSMA [2] = assay: αSMA expression (western blot) in TGFβ1-stimulated HFL1 cells; assay type: cell-based, human; details: PPMP 3 μM, NB-DNJ 100 μM applied 30 minutes before TGFβ1 (10 ng/mL), 24 hours
Procedure: Human pulmonary fibroblast (HFL1) (ATCC CCL-153) cells were cultured under the conditions of 95% air-5% CO2 and 37° C., using a Dulbecco's Modified Eagle Medium (DMEM) containing 10% fetal bovine serum (FBS), 100 μg/mL streptomycin, and 66.7 μg/mL penicillin.
How an increase in lactosylceramide synthesis activity due to TGFβ1 affects the fibrosing of tissues was examined based on the expression level of αSMA, which is a fibrosing marker protein.

Smad2 = Smad2 nuclear localization (immunofluorescent staining, confocal) in HFL1 cells; assay type: cell-based, human; details: pretreatment PPMP 3 μM or NB-DNJ 100 μM, TGFβ1 10 ng/mL, 3 hours
Procedure: For immunostaining of Smad and phosphorylated Smad, ribonuclease A (RNase, Worthington Biochemical) (200 μg/mL, room temperature, 30 minutes) and propidium iodide (PI, Cayman Chemical) (20 μg/mL, room temperature, 30 minutes) were applied to stain the nucleus, and the stained images were observed using a confocal microscope (FV500 manufactured by Olympus).
When localization of Smad2/3 was observed, on the other hand, Smad2/3 accumulated in the nucleus in 3 hours after the single stimulation of TGFβ1 (10 ng/mL).

PKCδ = assay: Translocation of PKCδ into the cellular membrane in HFL1 cells; assay type: cell-based, human; details: PPMP 3 μM, Rottlerin 1 μM applied beforehand, two hours after TGFβ1 10 ng/mL
Procedure: HFL1 cells were inoculated onto a 3.5-cm glass-bottom dish by 1.0×10^4 cells/dish, and then cultured in 2.0 mL of DMEM containing 10% FBS, to achieve 70% confluence. The cells were washed in HBSS containing 0.1% BSA, and then cultured in DMEM containing 0.1% BSA for 48 hours without serum.
Thereafter, the medium was replaced by a DMEM containing 0.1% BSA, and stimulation was given for a specified period using each reagent (each inhibitor was applied 30 minutes before the stimulant), after which each sample was fixed with 4% paraformaldehyde (PFA) at 4° C. for 15 minutes. Thereafter, as deemed appropriate, the sample was permeabilized (0.3% saponin, room temperature, 1 hour) and blocked (3% BSA, room temperature, 1 hour), with a primary antibody applied overnight at 4° C., and a secondary antibody applied for 1 hour at room temperature. For immunostaining of Smad and phosphorylated Smad, ribonuclease A (RNase, Worthington Biochemical) (200 μg/mL, room temperature, 30 minutes) and propidium iodide (PI, Cayman Chemical) (20 μg/mL, room temperature, 30 minutes) were applied to stain the nucleus, and the stained images were observed using a confocal microscope (FV500 manufactured by Olympus).
In general, activation of PKC is observed in the form of its translocation into the cellular membrane; accordingly, involvement of lactosylceramide was examined using the translocation of PKCδ into the cellular membrane as an indicator.

[3] = tested on: lactosylceramide synthase; assay: Lactosylceramide synthesis activation test; assay type: cell-based, human; details: HFL1 cells; PPMP 3 μM, NB-DNJ 100 μM applied 30 minutes before TGFβ1 (10 ng/mL) stimulation
Procedure: The experiment was conducted by referring to Chatterjee S, Pandey A. The Yin and Yang of lactosylceramide metabolism: implications in cell function. Biochim Biophys Acta. 2008 March; 1780 (3); 370-82.
The sample was put through quantitative determination of protein, and then 300 μM of […], 100 μM of uridine diphosphate galactose (UDP-Gal, containing 7.5×10^5 dpm of [^3H] UDP-Gal), and reaction buffer, were added to 50 μL of sample, to a final volume of 100 μL/tube. This reaction sample was incubated for 2 hours at 37° C., and finally 50 mM of KCl and 25 mM of EDTA were added to stop the reaction. Thereafter, lipids were extracted from the sample according to the Bligh-Dyer method, and all lipids were expanded using TLC (chloroform:methanol:water=100:42:6). The separated lipids were stained using iodine gas, silica gel at the same position as the lactosylceramide target was scraped off, and its radiation activity was measured using a liquid scintillation counter (Aloka LSC-5100 manufactured by Hitachi-Aloka Medical), and then the amount of synthesized lactosylceramide was calculated. It should be noted that, for the background sample(control), a sample with zero incubation time was used.
Whether or not TGFβ1 treatment would increase the synthesis of lactosylceramide was examined in vitro. […]

αSMA [4] = assay: Bleomycin-induced pulmonary fibrosis mouse model: lung αSMA western blot; assay type: in vivo, C57BL/6J mice; details: mice; 20 mg/kg NB-DNJ into the bronchial tubes on days 7, 8, 9 after bleomycin; lungs on 14th day
Procedure: 50 μL of 3 mg/kg bleomycin hydrochloride/saline solution (Nippon Kayaku Co., Ltd.) was administered through the bronchial tubes to C57BL/6J mice (male, 8 to 12 weeks old) under tribromoethanol-ether anesthesia, to prepare mouse models for pulmonary fibrosis. 50 μL of saline solution was administered in the same manner to a control group not treated with bleomycin hydrochloride.
Seven, eight and nine days after the administration of bleomycin, 50 μL of 20 mg/kg NB-DNJ/saline solution was administered into the bronchial tubes of the mice under tribromoethanol-ether anesthesia. 50 μL of saline solution was administered into the bronchial tubes to a control group of mice not administered with NB-DNJ.
On the 14th day after the administration of bleomycin, each mouse was subjected to thoracotomy under deep ether anesthesia, and its entire body was perfused with PBS from the left ventricle using a syringe needle, while blood was removed from the lungs through the right ventricle, and the lungs were removed.
Thereafter, the tissues were further pulverized using a homogenizer, and centrifuged at 15000 rpm and 4° C. for 30 minutes.

[5] = tested on: bleomycin-induced fibrosing of the lung; assay: Bleomycin-induced pulmonary fibrosis mouse model: hematoxylin eosin-stained lung slices; assay type: in vivo, C57BL/6J mice; details: mice, lungs on 14th day
Procedure: 50 μL of 3 mg/kg bleomycin hydrochloride/saline solution (Nippon Kayaku Co., Ltd.) was administered through the bronchial tubes to C57BL/6J mice (male, 8 to 12 weeks old) under tribromoethanol-ether anesthesia, to prepare mouse models for pulmonary fibrosis. 50 μL of saline solution was administered in the same manner to a control group not treated with bleomycin hydrochloride. Seven, eight and nine days after the administration of bleomycin, 50 μL of 20 mg/kg NB-DNJ/saline solution was administered into the bronchial tubes of the mice under tribromoethanol-ether anesthesia. 50 μL of saline solution was administered into the bronchial tubes to a control group of mice not administered with NB-DNJ. For 7 to 13 consecutive days after the administration ofbleomycin, 0.2 mL of 600 mg/kg NB-DNJ/saline solution was orally administered daily (once a day). As control group mice which were not administrated with NB-DNJ, 0.2 mL of saline solution was orally administered. On the 14th day after the administration of bleomycin, each mouse was subjected to thoracotomy under deep ether anesthesia, and its entire body was perfused with PBS from the left ventricle using a syringe needle, while blood was removed from the lungs through the right ventricle, and the lungs were removed. The lungs were soaked in 4% paraformaldehyde and fixed overnight at 4° C. […]

For “1-phenyl-2-hexadecanoyl amino-3-morpholino-1-propanol [PPMP]”, the “expression of αSMA in patient's pulmonary fibroblast cells” value [1] was “the expression of αSMA is suppressed”, the “phosphorylation levels of Smad2/3” value (Smad2/3) was “did not change the phosphorylation levels of Smad2/3 over time” and the “increase in the αSMA expression level due to TGFβ1” value (αSMA [2]) was “suppressed increase in the αSMA expression level”. For the same molecule, the “accumulation of Smad2 in the nucleus due to TGFβ1” value (Smad2) was “suppressed the accumulation of Smad2 in the nucleus”, the “translocation of PKCδ into the cellular membrane due to TGFβ1” value (PKCδ) was “translocation of PKCδ into the cellular membrane was suppressed” and the “activity of the lactosylceramide synthase after TGFβ1 stimulation” value [3] was “suppressed the activity of the lactosylceramide synthase significantly”.

`CCCCN1C[C@H](O)[C@@H](O)[C@H](O)[C@H]1CO` [NB-DNJ, N-butyl deoxynojirimycin] was tested, and the “expression of αSMA in lung in the presence of bleomycin” value (αSMA [4]) was “the expression of αSMA is suppressed”, the “expression of αSMA in patient's pulmonary fibroblast cells” value [1] was “the expression of αSMA is suppressed” and the “increase in the αSMA expression level due to TGFβ1” value (αSMA [2]) was “suppressed increase in the αSMA expression level”. For the same molecule, the “bleomycin-induced fibrosing of the lung, bronchial-tube-administration” value ([5]; 20 mg/kg NB-DNJ into the bronchial tubes on days 7, 8, 9 after bleomycin) was “suppress the bleomycin-induced fibrosing of the lung”, the “bleomycin-induced fibrosing of the lung, oral administration” value ([5]; 600 mg/kg NB-DNJ orally once a day, days 7 to 13 after bleomycin) was “suppress the bleomycin-induced fibrosing of the lung” and the “accumulation of Smad2 in the nucleus due to TGFβ1” value (Smad2) was “suppressed the accumulation of Smad2 in the nucleus”. The “activity of the lactosylceramide synthase after TGFβ1 stimulation” value [3] was “suppressed the activity of the lactosylceramide synthase significantly”.
